These molecules were tested against recombinant DYRK1A kinase (Homo sapiens (Human), UniProt Q13627) (assay: DYRK1A kinase assay (Ser/Thr 18 peptide Z-lyte FRET assay)). Conditions: DYRK1A kinase activity; 15 μM ATP, 1 h room temperature; method text calls the value IC50.
Type: biochemical
In short: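 FRET Z-lyte read-out (coumarin/fluorescein ratio, % phosphorylation) after 1 h development; IC50 from non-linear curve fit. Reaction: 0.25 μg/mL recombinant human DYRK1A, Ser/Thr 18 peptide 4 μM, ATP 15 μM, compound in 11-point 1:3 series from 10 μM, 1 h, room temperature, duplicate wells.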

| Structure (SMILES) | EC50 |
| --- | --- |
| c1cnc2ccc(-c3c[nH]c4ncnc(N[C@H]5CC[C@H](N6CCOCC6)CC5)c34)cc2c1 [Compound 1898, N-(trans-4-Morpholinocyclohexyl)-5-(quinolin-6-yl)-7H-pyrrolo[2,3-d]pyrimidin-4-amine] | 7.5 nM |
| Cc1nc(OCC2CCN(C)CC2)c2c(-c3ccc4ncccc4c3)c[nH]c2n1 [Compound 1899, 6-(2-Methyl-4-((1-methylpiperidin-4-yl)methoxy)-7H-pyrrolo[2,3-d]pyrimidin-5-yl)quinoline] | 18.6 nM |
| CC(C)(C)CNc1ncc2c(-c3ccc4nccnc4c3)c[nH]c2n1 [Compound 1911, N-Neopentyl-5-(quinoxalin-6-yl)-7H-pyrrolo[2,3-d]pyrimidin-2-amine] | 117 nM |
| C[C@@H](Nc1ncc2c(-c3ccc4nccnc4c3)c[nH]c2n1)C(F)(F)F [Compound 1916, (R)-5-(Quinoxalin-6-yl)-N-(1,1,1-trifluoropropan-2-yl)-7H-pyrrolo[2,3-d]pyrimidin-2-amine] | 6 nM |
| CN1CCC(Nc2ncc3c(-c4ccc5nccnc5c4)c[nH]c3n2)CC1 [Compound 1932, N-(1-Methylpiperidin-4-yl)-5-(quinoxalin-6-yl)-7H-pyrrolo[2,3-d]pyrimidin-2-amine] | 12.5 nM |
| c1cnc2cc(-c3c[nH]c4nc(NC5CCOCC5)ncc34)ccc2n1 [Compound 1934, 5-(Quinoxalin-6-yl)-N-(tetrahydro-2H-pyran-4-yl)-7H-pyrrolo[2,3-d]pyrimidin-2-amine] | 7.8 nM |
| CN1CCN(c2ccc(Nc3ncc4c(-c5ccc6nccnc6c5)c[nH]c4n3)cn2)CC1 [Compound 1938, N-(6-(4-Methylpiperazin-1-yl)pyridin-3-yl)-5-(quinoxalin-6-yl)-7H-pyrrolo [2,3-d]pyrimidin-2-amine] | 3.3 nM |
| CC(C)(F)CNc1ncc2c(-c3ccc4ncncc4c3)c[nH]c2n1 [Compound 1956, N-(2-Fluoro-2-methylpropyl)-5-(quinazolin-6-yl)-7H-pyrrolo[2,3-d]pyrimidin-2-amine] | 11.9 nM |
| CN1CCN(c2ccc(CNc3ncc4c(-c5ccc6ncncc6c5)c[nH]c4n3)cn2)CC1 [Compound 1982, N-((6-(4-Methylpiperazin-1-yl)pyridin-3-yl)methyl)-5-(quinazolin-6-yl)-7H-pyrrolo[2,3-d]pyrimidin-2-amine] | 2.9 nM |
| CN1CCN(c2ncnc3ccc(-c4c[nH]c5nc(N)ncc45)cc23)CC1 [Compound 1986, 5-(4-(4-Methylpiperazin-1-yl)quinazolin-6-yl)-7H-pyrrolo[2,3-d]pyrimidin-2-amine] | 41.6 nM |
| CN1CCN(c2ncnc3ccc(-c4c[nH]c5nc(C6CC6)ncc45)cc23)CC1 [Compound 1987, 6-(2-Cyclopropyl-7H-pyrrolo[2,3-d]pyrimidin-5-yl)-4-(4-methylpiperazin-1-yl)quinazoline] | 70.4 nM |
| CN1CCC(Oc2cnc3ccc(-c4c[nH]c5nc(N)ncc45)cc3n2)CC1 [Compound 1994, 5-(3-((1-Methylpiperidin-4-yl)oxy)quinoxalin-6-yl)-7H-pyrrolo[2,3-d]pyrimidin-2-amine] | 13.8 nM |
| CN1CCN(c2cc(Nc3ncc4c(-c5ccn6ncc(-c7cccnc7)c6c5)c[nH]c4n3)ccn2)CC1 [Compound 2031, N-(2-(4-methylpiperazin-1-yl)pyridin-4-yl)-5-(3-(pyridin-3-yl)pyrazolo[1,5-a]pyridin-5-yl)-7H-pyrrolo[2,3-d]pyrimidin-2-amine] | 12.8 nM |
| CNc1ncc2c(-c3ccn4ncc(C(=O)N5CCN(C)CC5)c4c3)c[nH]c2n1 [Compound 2032, (5-(2-(Methylamino)-7H-pyrrolo[2,3-d]pyrimidin-5-yl)pyrazolo[1,5-a]pyridin-3-yl)(4-methylpiperazin-1-yl)methanone] | 58.8 nM |
| CO[C@H]1C[C@@H](Nc2ncc3c(-c4ccc5nccn5n4)c[nH]c3n2)C1 [Compound 2053, 5-(Imidazo[1,2-b]pyridazin-6-yl)-N-(cis-3-methoxycyclobutyl)-7H-pyrrolo [2,3-d]pyrimidin-2-amine] | 1.9 nM |
| CO[C@H]1C[C@@H](Nc2ncc3c(-c4ccn5nccc5n4)c[nH]c3n2)C1 [Compound 2070, N-(cis-3-Methoxycyclobutyl)-5-(pyrazolo[1,5-a]pyrimidin-5-yl)-7H-pyrrolo [2,3-d]pyrimidin-2-amine] | 2.9 nM |
| CO[C@H]1C[C@@H](Nc2ncc3c(-c4ccc5ncccc5c4)c[nH]c3n2)C1 [Compound 2075, N-(cis-3-Methoxycyclobutyl)-5-(quinolin-6-yl)-7H-pyrrolo[2,3-d]pyrimidin-2-amine] | 8 nM |
| CO[C@H]1C[C@@H](Nc2ncc3c(-c4ccc5nccnc5c4)c[nH]c3n2)C1 [Compound 2076, N-(cis-3-Methoxycyclobutyl)-5-(quinoxalin-6-yl)-7H-pyrrolo[2,3-d]pyrimidin-2-amine] | 5.7 nM |
| FC(F)(F)O[C@H]1CC[C@@H](Nc2ncc3c(-c4ccn5nccc5c4)c[nH]c3n2)CC1 [Compound 2104, 5-(Pyrazolo[1,5-a]pyridin-5-yl)-N-(cis-4-(trifluoromethoxy)cyclohexyl)-7H-pyrrolo[2,3-d]pyrimidin-2-amine] | 690 nM |

The next lines start with the values.

| EC50 | Structure (SMILES) |
| --- | --- |
| 2.4 nM | CCO[C@H]1CC[C@@H](Nc2ncc3c(-c4cc(F)c5nccn5c4)c[nH]c3n2)CC1 [Compound 2129, N-(cis-4-Ethoxycyclohexyl)-5-(8-fluoroimidazo[1,2-a]pyridin-6-yl)-7H-pyrrolo[2,3-d]pyrimidin-2-amine] |
| 9.9 nM | CCO[C@H]1CC[C@@H](Nc2ncc3c(-c4ccc5nnn(C)c5c4)c[nH]c3n2)CC1 [Compound 2143, N-(cis-4-Ethoxycyclohexyl)-5-(1-methyl-1H-benzo[d][1,2,3]triazol-6-yl)-7H-pyrrolo[2,3-d]pyrimidin-2-amine] |
| 3 nM | CCO[C@H]1CC[C@@H](Nc2ncc3c(-c4ccc5nccn5n4)c[nH]c3n2)CC1 [Compound 2145, N-(cis-4-Ethoxycyclohexyl)-5-(imidazo[1,2-b]pyridazin-6-yl)-7H-pyrrolo [2,3-d]pyrimidin-2-amine] |
| 8.5 nM | CCO[C@H]1CC[C@@H](Nc2ncc3c(-c4ccn5nccc5n4)c[nH]c3n2)CC1 [Compound 2162, N-(cis-4-Ethoxycyclohexyl)-5-(pyrazolo[1,5-a]pyrimidin-5-yl)-7H-pyrrolo [2,3-d]pyrimidin-2-amine] |
| 1.5 nM | [2H]C([2H])([2H])O[C@H]1CC[C@@H](Nc2ncc3c(-c4ccc5nccn5n4)c[nH]c3n2)CC1 [Compound 2171, 5-(Imidazo[1,2-b]pyridazin-6-yl)-N-(cis-4-(methoxy-d3)cyclohexyl)-7H-pyrrolo[2,3-d]pyrimidin-2-amine] |
| 5 nM | [2H]C([2H])([2H])O[C@H]1CC[C@@H](Nc2ncc3c(-c4ccc5nnn(C)c5c4)c[nH]c3n2)CC1 [Compound 2172, N-(cis-4-(Methoxy-d3)cyclohexyl)-5-(1-methyl-1H-benzo[d][1,2,3]triazol-6-yl)-7H-pyrrolo[2,3-d]pyrimidin-2-amine] |
| 10.5 nM | [2H]C([2H])([2H])O[C@H]1CC[C@@H](Nc2ncc3c(-c4ccc5nccnc5c4)c[nH]c3n2)CC1 [Compound 2173, N-(cis-4-(Methoxy-d3)cyclohexyl)-5-(quinoxalin-6-yl)-7H-pyrrolo[2,3-d]pyrimidin-2-amine] |
| 1.6 nM | COc1nc(N[C@H](C)C(F)(F)F)nc2[nH]cc(-c3ccc4nccn4c3)c12 [Compound 2174, (R)-5-(Imidazo[1,2-a]pyridin-6-yl)-4-methoxy-N-(1,1,1-trifluoropropan-2-yl)-7H-pyrrolo[2,3-d]pyrimidin-2-amine] |
| 74.9 nM | COC[C@@H](C)Nc1nc(OC)c2c(-c3ccc4nccn4c3)c[nH]c2n1 [Compound 2175, (R)-5-(Imidazo[1,2-a]pyridin-6-yl)-4-methoxy-N-(1-methoxypropan-2-yl)-7H-pyrrolo[2,3-d]pyrimidin-2-amine] |
| 2.1 nM | COc1nc(N[C@H]2CC[C@@H](OCC(F)F)CC2)nc2[nH]cc(-c3ccc4nccn4c3)c12 [Compound 2176, N-(cis-4-(2,2-Difluoroethoxy)cyclohexyl)-5-(imidazo[1,2-a]pyridin-6-yl)-4-methoxy-7H-pyrrolo[2,3-d]pyrimidin-2-amine] |
| 10.3 nM | CCOc1nc(N[C@H](C)C(F)(F)F)nc2[nH]cc(-c3ccc4nccn4c3)c12 [Compound 2177, (R)-4-Ethoxy-5-(imidazo[1,2-a]pyridin-6-yl)-N-(1,1,1-trifluoropropan-2-yl)-7H-pyrrolo[2,3-d]pyrimidin-2-amine] |
| 6.8 nM | C[C@@H](Nc1nc(OCCO)c2c(-c3ccc4nccn4c3)c[nH]c2n1)C(F)(F)F [Compound 2178, (R)-2-((5-(imidazo[1,2-a]pyridin-6-yl)-2-((1,1,1-trifluoropropan-2-yl)amino)-7H-pyrrolo[2,3-d]pyrimidin-4-yl)oxy)ethan-1-ol] |
| 2.2 nM | C[C@]1(O)CC[C@@H](Nc2ncc3c(-c4cc(F)c5nccn5c4)c[nH]c3n2)CC1 [Compound 2179, cis-4-((5-(8-Fluoroimidazo[1,2-a]pyridin-6-yl)-7H-pyrrolo[2,3-d]pyrimidin-2-yl)amino)-1-methylcyclohexan-1-ol] |
| 3.9 nM | [2H]C([2H])([2H])O[C@H]1CC[C@@H](Nc2ncc3c(-c4cc(F)c5nccn5c4)c[nH]c3n2)CC1 [Compound 2180, 5-(8-Fluoroimidazo[1,2-a]pyridin-6-yl)-N-(cis-4-(methoxy-d3)cyclohexyl)-7H-pyrrolo[2,3-d]pyrimidin-2-amine] |
| 5.1 nM | Fc1cc(-c2c[nH]c3nc(N[C@H]4CC[C@@H](OCC(F)F)CC4)ncc23)cn2ccnc12 [Compound 2181, N-(cis-4-(2,2-Difluoroethoxy)cyclohexyl)-5-(8-fluoroimidazo[1,2-a]pyridin-6-yl)-7H-pyrrolo[2,3-d]pyrimidin-2-amine] |
| 3.1 nM | OCCO[C@H]1CC[C@@H](Nc2ncc3c(-c4cc(F)c5nccn5c4)c[nH]c3n2)CC1 [Compound 2182, 2-((cis-4-((5-(8-Fluoroimidazo[1,2-a]pyridin-6-yl)-7H-pyrrolo[2,3-d]pyrimidin-2-yl)amino)cyclohexyl)oxy)ethan-1-ol] |

Source: patent publication US20250129104A1, “7H-PYRROLO[2,3-D]PYRIMIDINES AND PREPARATION AND USES THEREOF” (BioSplice Therapeutics, Inc., priority 2021, published 2025)
